# ChEMBL document CHEMBL3885861, “Open TG-GATES”
# Organism: Rattus norvegicus
# Test: Open TG-GATES - Regimen: Single
# Format: toxicity, organism-based, Sprague-Dawley
# Parameters: regimen Single, gender Male, age 6 weeks
# Details: in vivo, po, 0 mg/kg, route gavage, dose level Control; for APTT / Bas / Eos / Fbg / Hb / Ht / Lym / MCH / MCHC / MCV / Mono / Neu / PT / Plat / RBC / Ret / WBC: tissue Blood; for KIDNEY_L / KIDNEY_R / KIDNEY_TOTAL: tissue Kidney; for LIVER: tissue Liver; for ALP / ALT / AST / BUN / CRE / DBIL / GLC / K / LDH / Na / PL / RALB / TBIL / TC / TG / TP / gamma-GTP: tissue Plasma
structure (smiles),measurement,setting,value
CC(CCc1ccccc1)NCC(O)c1ccc(O)c(C(N)=O)c1 (stereo not given) [LABETALOL],TERMINAL_BW,3 h,214.7 g
same,APTT,3 h,16 s
same,Bas,3 h,0%
same,Eos,3 h,1%
same,Fbg,3 h,279.6 mg/dL
same,Hb,3 h,13 g/dL
same,Ht,3 h,38.7%
same,Lym,3 h,80.6%
same,MCH,3 h,21.4 pg
same,MCHC,3 h,33.6%
same,MCV,3 h,63.6 fL
same,Mono,3 h,3.4%
same,Neu,3 h,14.2%
same,PT,3 h,13.1 s
same,Plat,3 h,108.8 x10_4/uL
same,RBC,3 h,608.8 x10_4/ul
same,Ret,3 h,8%
same,WBC,3 h,90.7 x10_2/uL
same,KIDNEY_L,3 h,0.9 g
same,KIDNEY_R,3 h,0.9 g
same,KIDNEY_TOTAL,3 h,1.8 g
same,LIVER,3 h,9.4 g
same,ALP,3 h,1611 IU/L
same,ALT,3 h,45.8 IU/L
same,AST,3 h,77.4 IU/L
same,BUN,3 h,11.8 mg/dL
same,CRE,3 h,0.2 mg/dL
same,DBIL,3 h,0.014 mg/dL
same,GLC,3 h,184 mg/dL
same,K,3 h,3.8 meq/L
same,LDH,3 h,70.6 IU/L
same,Na,3 h,142.6 meq/L
same,PL,3 h,141.8 mg/dL
same,RALB,3 h,2.6 g/dL
same,TBIL,3 h,0.048 mg/dL
same,TC,3 h,83 mg/dL
same,TG,3 h,68.4 mg/dL
same,TP,3 h,5.5 g/dL
same,gamma-GTP,3 h,1.6 IU/L
same,TERMINAL_BW,6 h,213.8 g
same,APTT,6 h,16.4 s
same,Bas,6 h,0%
same,Eos,6 h,1%
same,Fbg,6 h,327.6 mg/dL
same,Hb,6 h,13.3 g/dL
same,Ht,6 h,39%
same,Lym,6 h,72.8%
same,MCH,6 h,21.8 pg
same,MCHC,6 h,34%
same,MCV,6 h,63.9 fL
same,Mono,6 h,3.4%
same,Neu,6 h,22.2%
same,PT,6 h,12.9 s
same,Plat,6 h,104.3 x10_4/uL
same,RBC,6 h,609.8 x10_4/ul
same,Ret,6 h,8.3%
same,WBC,6 h,100.8 x10_2/uL
same,KIDNEY_L,6 h,0.9 g
same,KIDNEY_R,6 h,1 g
same,KIDNEY_TOTAL,6 h,1.9 g
same,LIVER,6 h,8.9 g
same,ALP,6 h,1394.4 IU/L
same,ALT,6 h,39.8 IU/L
same,AST,6 h,73.2 IU/L
same,BUN,6 h,8.6 mg/dL
same,CRE,6 h,0.2 mg/dL
same,DBIL,6 h,0.004 mg/dL
same,GLC,6 h,170.2 mg/dL
same,K,6 h,4 meq/L
same,LDH,6 h,52.4 IU/L
same,Na,6 h,142.6 meq/L
same,PL,6 h,136.4 mg/dL
same,RALB,6 h,2.5 g/dL
same,TBIL,6 h,0.038 mg/dL
same,TC,6 h,86.2 mg/dL
same,TG,6 h,41.8 mg/dL
same,TP,6 h,5.4 g/dL
same,gamma-GTP,6 h,1.2 IU/L
same,TERMINAL_BW,9 h,217.8 g
same,APTT,9 h,16.8 s
same,Bas,9 h,0%
same,Eos,9 h,0.8%
same,Fbg,9 h,288 mg/dL
same,Hb,9 h,13.4 g/dL
same,Ht,9 h,39.5%
same,Lym,9 h,80.6%
same,MCH,9 h,21.7 pg
same,MCHC,9 h,33.9%
same,MCV,9 h,64 fL
same,Mono,9 h,2.4%
same,Neu,9 h,15.4%
same,PT,9 h,13.5 s
same,RBC,9 h,617.2 x10_4/ul
same,Ret,9 h,7.6%
same,WBC,9 h,96.4 x10_2/uL
same,KIDNEY_L,9 h,0.9 g
same,KIDNEY_R,9 h,0.9 g
same,KIDNEY_TOTAL,9 h,1.8 g
same,LIVER,9 h,8.8 g
same,ALP,9 h,1362.6 IU/L
same,ALT,9 h,39.4 IU/L
same,AST,9 h,72.8 IU/L
same,BUN,9 h,10.2 mg/dL
same,CRE,9 h,0.2 mg/dL
same,DBIL,9 h,0.01 mg/dL
same,GLC,9 h,175.6 mg/dL
same,K,9 h,3.8 meq/L
same,LDH,9 h,49.8 IU/L
same,Na,9 h,143 meq/L
same,PL,9 h,133 mg/dL
same,RALB,9 h,2.6 g/dL
same,TBIL,9 h,0.046 mg/dL
same,TC,9 h,75.8 mg/dL
same,TG,9 h,67.6 mg/dL
same,TP,9 h,5.5 g/dL
same,gamma-GTP,9 h,1.2 IU/L
same,TERMINAL_BW,24 h,220.3 g
same,APTT,24 h,16.3 s
same,Bas,24 h,0%
same,Eos,24 h,1%
same,Fbg,24 h,294.8 mg/dL
same,Hb,24 h,13 g/dL
same,Ht,24 h,38%
same,Lym,24 h,78.2%
same,MCH,24 h,21.5 pg
same,MCHC,24 h,34.1%
same,MCV,24 h,63.1 fL
same,Mono,24 h,2.6%
same,Neu,24 h,17.4%
same,PT,24 h,12.8 s
same,Plat,24 h,119 x10_4/uL
same,RBC,24 h,603.2 x10_4/ul
same,Ret,24 h,7.9%
same,WBC,24 h,78.3 x10_2/uL
same,KIDNEY_L,24 h,0.9 g
same,KIDNEY_R,24 h,0.9 g
same,KIDNEY_TOTAL,24 h,1.9 g
same,LIVER,24 h,10.2 g
same,ALP,24 h,1641.6 IU/L
same,ALT,24 h,49.8 IU/L
same,AST,24 h,75.6 IU/L
same,BUN,24 h,15.8 mg/dL
same,CRE,24 h,0.2 mg/dL
same,DBIL,24 h,0.012 mg/dL
same,GLC,24 h,182.2 mg/dL
same,K,24 h,4.4 meq/L
same,LDH,24 h,59 IU/L
same,Na,24 h,141.8 meq/L
same,PL,24 h,150.8 mg/dL
same,RALB,24 h,2.7 g/dL
same,TBIL,24 h,0.03 mg/dL
same,TC,24 h,88.4 mg/dL
same,TG,24 h,82 mg/dL
same,TP,24 h,5.7 g/dL
same,gamma-GTP,24 h,1.2 IU/L
